Assay results from US20060069132A1, “Azolecarboxamide herbicides” (priority 2004, published 2006).

Experiments:
barnyardgrass [1] = experiment: Test B pre-/postemergence herbicide test; type: in vivo, Echinochloa crus-galli; conditions: for Plant response rating, Barnyardgrass: preemergence; for Barnyardgrass plant response rating: postemergence, visual rating, scale 0 (no effect) to 100 (complete control)
Method in brief: (§1)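 Visual rating, 0 (no effect) to 100 (complete control), versus untreated controls after 13–15 d in greenhouse. Pre- and postemergence applications (postemergence plants 2–18 cm, 1–4 leaves); flooded paddy arm at 2-leaf stage. Compounds in non-phytotoxic solvent plus surfactant.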

Surinam grass = experiment: Test B pre-/postemergence herbicide test; type: in vivo, Urochloa decumbens; conditions: for Plant response rating, Surinam Grass: preemergence; for Surinam Grass plant response rating: postemergence, visual rating, scale 0 (no effect) to 100 (complete control)
Method in brief: (§2)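 Formulation: non-phytotoxic solvent mix with surfactant. Timing: preemergence on seed and postemergence on 2–18 cm plants, applied concurrently. Readout after 13–15 d greenhouse: visual 0–100 control rating against controls.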

cocklebur = experiment: Test B pre-/postemergence herbicide test; type: in vivo, Xanthium strumarium; conditions: for Plant response rating, Cocklebur: preemergence; for Cocklebur plant response rating: postemergence, visual rating, scale 0 (no effect) to 100 (complete control)
Method in brief: as §1

corn = experiment: Test B pre-/postemergence herbicide test; type: in vivo, Zea mays; conditions: for Plant response rating, Corn: preemergence; for Corn plant response rating: postemergence, visual rating, scale 0 (no effect) to 100 (complete control)
Method in brief: as §2

large crabgrass = experiment: Test B pre-/postemergence herbicide test; type: in vivo, Digitaria sanguinalis; conditions: for Plant response rating, Crabgrass, Large: preemergence; for Crabgrass, Large plant response rating: postemergence, visual rating, scale 0 (no effect) to 100 (complete control)
Method in brief: as §2

giant foxtail = experiment: Test B pre-/postemergence herbicide test; type: in vivo, Setaria faberi; conditions: for Plant response rating, Foxtail, Giant: preemergence; for Foxtail, Giant plant response rating: postemergence, visual rating, scale 0 (no effect) to 100 (complete control)
Method in brief: as §2

lambsquarters = experiment: Test B pre-/postemergence herbicide test; type: in vivo, Chenopodium album; conditions: for Plant response rating, Lambsquarters: preemergence; for Lambsquarters plant response rating: postemergence, visual rating, scale 0 (no effect) to 100 (complete control)
Method in brief: as §2

morningglory = experiment: Test B pre-/postemergence herbicide test; type: in vivo, Ipomoea coccinea; conditions: for Plant response rating, Morningglory: preemergence; for Morningglory plant response rating: postemergence, visual rating, scale 0 (no effect) to 100 (complete control)
Method in brief: as §1

pigweed = experiment: Test B pre-/postemergence herbicide test; type: in vivo, Amaranthus retroflexus; conditions: for Plant response rating, Pigweed: preemergence; for Pigweed plant response rating: postemergence, visual rating, scale 0 (no effect) to 100 (complete control)
Method in brief: as §2

rice [2] = experiment: Test B pre-/postemergence herbicide test; type: in vivo, Oryza sativa; conditions: preemergence
Method in brief: as §2

velvetleaf = experiment: Test B pre-/postemergence herbicide test; type: in vivo, Abutilon theophrasti; conditions: for Plant response rating, Velvetleaf: preemergence; for Velvetleaf plant response rating: postemergence, visual rating, scale 0 (no effect) to 100 (complete control)
Method in brief: as §2

blackgrass = experiment: Test B postemergence herbicide test; type: in vivo, Alopecurus myosuroides; conditions: postemergence, visual rating, scale 0 (no effect) to 100 (complete control)
Method in brief: (§3)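 Visual ratings, 0 (no effect) to 100 (complete control), made versus controls after 13–15 d greenhouse. Paddy plants treated at 2-leaf stage; postemergence plants at 1- to 4-leaf stage, 2–18 cm tall.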

wheat = experiment: Test B postemergence herbicide test; type: in vivo, Triticum aestivum; parameters: key to Wheat plant response rating: 0 = no effect, 100 = complete control; conditions: postemergence, 500 g ai/ha; visual rating, scale 0 (no effect) to 100 (complete control)
Method in brief: (§4)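 After treating 2-leaf paddy plants or 2–18 cm postemergence plants (1 to 4 leaves) with formulated chemical, researchers kept them in a greenhouse for 13–15 days. Effects were judged visually versus controls: 0 indicates none, 100 total control.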

wild oat = experiment: Test B postemergence herbicide test; type: in vivo, Avena fatua; conditions: postemergence, visual rating, scale 0 (no effect) to 100 (complete control)
Method in brief: as §4

rice [3] = experiment: Test B flooded paddy test; type: in vivo, Oryza sativa; conditions: 1000 g ai/ha, visual rating, scale 0 to 100 (0 no effect, 100 complete control), 13 to 15 days
Method in brief: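 Scale 0–100: zero equals no visible effect, 100 complete control, judged by eye relative to controls. Timing: 13 to 15 days in greenhouse post-treatment. Growth stage at spraying: two leaves (paddy) or one to four leaves, 2–18 cm (postemergence).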

[4] = system: small flower umbrella sedge; experiment: Test B flooded paddy test; type: in vivo, Cyperus difformis; conditions: 1000 g ai/ha, visual rating, scale 0 to 100 (0 no effect, 100 complete control), 13 to 15 days
Method in brief: as §3

ducksalad [5] = experiment: Test B flooded paddy test; type: in vivo, Heteranthera limosa; conditions: 1000 g ai/ha, visual rating, scale 0 to 100 (0 no effect, 100 complete control), 13 to 15 days
Method in brief: as §3

barnyardgrass [6] = experiment: Test B flooded paddy test; type: in vivo, Echinochloa crus-galli; conditions: 1000 g ai/ha, visual rating, scale 0 to 100 (0 no effect, 100 complete control), 13 to 15 days
Method in brief: as §3

rice [7] = experiment: Test C flooded paddy test; type: in vivo, Oryza sativa
Method in brief: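 Postemergence sprays applied to plants 2 to 18 cm tall (1- to 4-leaf stage); paddy species grown to 2-leaf stage under flooding. After 12 to 14 days in greenhouse, visual rating versus untreated controls on 0–100 scale (0 no effect, 100 complete control).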

[8] = system: smallflower umbrella sedge; experiment: Test C flooded paddy test; type: in vivo, Cyperus difformis
ducksalad [9] = experiment: Test C flooded paddy test; type: in vivo, Heteranthera limosa
barnyardgrass [10] = experiment: Test C flooded paddy test; type: in vivo, Echinochloa crus-galli
Method in brief: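 Weeds and wheat were sprayed after emergence, at a height of 2 to 18 cm (1–4 leaves), and paddy barnyardgrass was flooded and treated at two leaves. Assessment took place 12–14 days later in the greenhouse on a 0-to-100 visual control scale. A dash means no result was obtained.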

[11] = 500 g ai/ha, visual rating 0-100, 0 no effect, 100 complete control
[12] = 125 g ai/ha, 0 to 100 scale, 0 is no effect, 100 is complete control
[13] = 62 g ai/ha, scale 0 to 100 (0 no effect, 100 complete control)
[14] = 125 g ai/ha, scale 0 to 100 (0 no effect, 100 complete control)
[15] = 250 g ai/ha, scale of 0 to 100, 0 is no effect, 100 is complete control
[16] = 500 g ai/ha, visual rating after 12 to 14 days, scale 0 to 100 (0 no effect, 100 complete control)

For `CCn1nc(C(C)(C)C)cc1C(=O)Nc1cc(C(=O)NCCOC)ccn1` [Compound 161], the “Plant response rating, Barnyardgrass” value (barnyardgrass [1]; [11]) was 100, the “Barnyardgrass plant response rating” value (barnyardgrass [1]; 125 g ai/ha) was 10 and the “Barnyardgrass plant response rating” value (barnyardgrass [1]; 500 g ai/ha) was 10. For the same compound, the “Plant response rating, Barnyardgrass” value (barnyardgrass [1]; [12]) was 50, the “Plant response rating, Surinam Grass” value (Surinam grass; [11]) was 60 and the “Surinam Grass plant response rating” value (Surinam grass; 125 g ai/ha) was 20. The “Surinam Grass plant response rating” value (Surinam grass; 500 g ai/ha) was 20, the “Plant response rating, Surinam Grass” value (Surinam grass; [12]) was 10 and the “Plant response rating, Cocklebur” value (cocklebur; [11]) was 0. For the same compound, the “Cocklebur plant response rating” value (cocklebur; 125 g ai/ha) was 20, the “Cocklebur plant response rating” value (cocklebur; 500 g ai/ha) was 30 and the “Plant response rating, Cocklebur” value (cocklebur; [12]) was 0. The “Plant response rating, Corn” value (corn; [11]) was 10, the “Corn plant response rating” value (corn; 125 g ai/ha) was 0 and the “Corn plant response rating” value (corn; 500 g ai/ha) was 0. For the same compound, the “Plant response rating, Corn” value (corn; [12]) was 0, the “Plant response rating, Crabgrass, Large” value (large crabgrass; [11]) was 100 and the “Crabgrass, Large plant response rating” value (large crabgrass; 125 g ai/ha) was 0. For the same compound, the “Crabgrass, Large plant response rating” value (large crabgrass; 500 g ai/ha) was 10, the “Plant response rating, Crabgrass, Large” value (large crabgrass; [12]) was 80 and the “Plant response rating, Foxtail, Giant” value (giant foxtail; [11]) was 100. The “Foxtail, Giant plant response rating” value (giant foxtail; 125 g ai/ha) was 20, the “Foxtail, Giant plant response rating” value (giant foxtail; 500 g ai/ha) was 30 and the “Plant response rating, Foxtail, Giant” value (giant foxtail; [12]) was 20. The “Plant response rating, Lambsquarters” value (lambsquarters; [11]) was 100, the “Lambsquarters plant response rating” value (lambsquarters; 125 g ai/ha) was 70 and the “Lambsquarters plant response rating” value (lambsquarters; 500 g ai/ha) was 70. The “Plant response rating, Lambsquarters” value (lambsquarters; [12]) was 100, the “Plant response rating, Morningglory” value (morningglory; [11]) was 40 and the “Morningglory plant response rating” value (morningglory; 125 g ai/ha) was 20. For the same compound, the “Morningglory plant response rating” value (morningglory; 500 g ai/ha) was 20, the “Plant response rating, Morningglory” value (morningglory; [12]) was 10 and the “Plant response rating, Pigweed” value (pigweed; [11]) was 100. The “Pigweed plant response rating” value (pigweed; 125 g ai/ha) was 20, the “Pigweed plant response rating” value (pigweed; 500 g ai/ha) was 60 and the “Plant response rating, Pigweed” value (pigweed; [12]) was 100. For the same compound, the “Plant response rating, Rice” value (rice [2]; [11]) was 40, the “Plant response rating, Rice” value (rice [2]; [12]) was 0 and the “Plant response rating, Velvetleaf” value (velvetleaf; [11]) was 70. The “Velvetleaf plant response rating” value (velvetleaf; 125 g ai/ha) was 20, the “Velvetleaf plant response rating” value (velvetleaf; 500 g ai/ha) was 50 and the “Plant response rating, Velvetleaf” value (velvetleaf; [12]) was 20. The “Blackgrass plant response rating” value (blackgrass; 125 g ai/ha) was 40, the “Blackgrass plant response rating” value (blackgrass; 500 g ai/ha) was 40 and the “Wheat plant response rating” value (wheat) was 10. The “Oat, Wild plant response rating” value (wild oat; 125 g ai/ha) was 30, the “Oat, Wild plant response rating” value (wild oat; 500 g ai/ha) was 40 and the “Rice plant response rating” value (rice [3]) was 40. The “Sedge, Umbrella plant response rating” value [4] was 60, the “Ducksalad plant response rating” value (ducksalad [5]) was 80 and the “Barnyardgrass plant response rating” value (barnyardgrass [6]) was 80. The “Rice plant response rating” value (rice [7]; [13]) was 0, the “Rice plant response rating” value (rice [7]; [14]) was 10 and the “Rice plant response rating” value (rice [7]; [15]) was 60. For the same compound, the “Plant response rating, Rice” value (rice [7]; [16]) was 65, the “Sedge, Umbrella plant response rating” value [8, 13] was 0 and the “Sedge, Umbrella plant response rating” value [8, 14] was 0. The “Sedge, Umbrella plant response rating” value [8, 15] was 25, the “Plant response rating, Sedge, Umbrella” value [8, 16] was 40 and the “Ducksalad plant response rating” value (ducksalad [9]; [13]) was 30. The “Ducksalad plant response rating” value (ducksalad [9]; [14]) was 65, the “Ducksalad plant response rating” value (ducksalad [9]; [15]) was 80 and the “Plant response rating, Ducksalad” value (ducksalad [9]; [16]) was 90. For the same compound, the “Barnyardgrass plant response rating” value (barnyardgrass [10]; [13]) was 0, the “Barnyardgrass plant response rating” value (barnyardgrass [10]; 125 g ai/ha, scale of 0 to 100, 0 is no effect, 100 is complete control) was 0 and the “Barnyardgrass plant response rating” value (barnyardgrass [10]; [15]) was 30. The “Plant response rating, Barnyardgrass” value (barnyardgrass [10]; [16]) was 75.
